Our source for the Activity, viability and IC50 values is ChEMBL document CHEMBL5136996, “Semisynthesis and Non-Small-Cell Lung Cancer Cytotoxicity Evaluation of Germacrane-Type Sesquiterpene Lactones from Elephantopus scaber” (J Nat Prod, 2022).

Data set [1] concerns A549. The data set can be described thus: Induction of cell cycle arrest in human A549 cells assessed as accumulation of cells at G2/M phase incubated for 48 hrs by PI staining based flow cytometry (reference value: 9.7 to 17.2%). In kind it is functional. For orientation: In flow cytometry, cells or beads pass a laser one at a time.
For data set [2], the system named is A549. The data set can be described thus: Induction of apoptosis in human A549 cells assessed as necrotic cells at 3 uM incubated for 48 hrs by AnnexinV-FITC/PI staining based flow cytometry (reference value: 2.23 to 4.25%). In kind it is functional.
The nature of data set [3]: Cytotoxicity against rat Primary hepatocytes assessed as cell viability at 25 uM incubated for 12 hrs. In kind it is toxicity, cell-based, Hepatocyte. To be noted: read-out: Activity.
Data set [4] relates to A549. In words: Induction of apoptosis in human A549 cells assessed as necrotic cells at 10 uM incubated for 48 hrs by AnnexinV-FITC/PI staining based flow cytometry (reference value: 2.23 to 4.25%). In kind it is functional.
Data set [5] relates to A549. The data set can be described thus: Induction of apoptosis in human A549 cells assessed as decrease in mitochondrial membrane potential by measuring reduction in ratio of red to green fluorescence intensity at 3 to 10 uM incubated for 48 hrs by JC-1 staining based flow cytometry. In kind it is functional, cell-based. To be noted: dose 3-10 µM.
Data set [6] concerns A549. The data set can be described thus: Induction of apoptosis in human A549 cells assessed as early apoptotic cells at 10 uM incubated for 48 hrs by AnnexinV-FITC/PI staining based flow cytometry (reference value: 2.07 to 3.24%). In kind it is functional.
Data set [7] concerns A549. In words: Induction of apoptosis in human A549 cells assessed as increase in cleaved caspase-3 expression level at 3 to 10 uM incubated for 48 hrs by western blot analysis. To be noted: dose 3-10 µM. In kind it is functional, cell-based.
The test system of data set [8] is A549. The data set can be described thus: Induction of apoptosis in human A549 cells assessed as increase in cleaved caspase-9 expression level at 3 to 10 uM incubated for 48 hrs by western blot analysis. In kind it is functional, cell-based. To be noted: dose 3-10 µM. For orientation: Immunoblotting shows a protein as a band on a membrane.
Data set [9] deals with A549. In words: Induction of apoptosis in human A549 cells assessed as viable cells at 10 uM incubated for 48 hrs by AnnexinV-FITC/PI staining based flow cytometry (reference value: 91.5 to 92.9%). In kind it is functional. To be noted: read-out: Activity.
Data set [10] deals with A549. The data set can be described thus: Cytotoxicity against human A549 cells assessed as reduction in cell viability incubated for 48 hrs by MTT assay. In kind it is functional, cell-based. To be noted: A549, 48 h. On the technique in general: Tetrazolium assays rely on reduction of a dye to a coloured formazan, in cell work by metabolically active cells.
The subject of data set [11] is A549. In words: Induction of apoptosis in human A549 cells assessed as late apoptotic cells at 10 uM incubated for 48 hrs by AnnexinV-FITC/PI staining based flow cytometry (reference value: 1.58 to 2.23%). In kind it is functional.
Data set [12] has as its system A549. In words: Induction of apoptosis in human A549 cells assessed as viable cells at 3 uM incubated for 48 hrs by AnnexinV-FITC/PI staining based flow cytometry (reference value: 91.5 to 92.9%). In kind it is functional. To be noted: read-out: Activity.
Data set [13] has as its system A549. The data set can be described thus: Induction of apoptosis in human A549 cells assessed as early apoptotic cells at 3 uM incubated for 48 hrs by AnnexinV-FITC/PI staining based flow cytometry (reference value: 2.07 to 3.24%). In kind it is functional.
Data set [14] deals with NCI-H460. In words: Cytotoxicity against human NCI-H460 cells assessed as reduction in cell viability incubated for 48 hrs by MTT assay. In kind it is functional, cell-based. To be noted: NCI-H460, 48 h.
In data set [15] the test system is A549. In words: Induction of apoptosis in human A549 cells assessed as late apoptotic cells at 3 uM incubated for 48 hrs by AnnexinV-FITC/PI staining based flow cytometry (reference value: 1.58 to 2.23%). In kind it is functional.
Data set [16] deals with A549. The data set can be described thus: Induction of intracellular ROS generation in human A549 cells incubated for 48 hrs by H2DCF-DA staining based flow cytometry. In kind it is functional, cell-based. To be noted: dose 3-10 µM, DDE = dose-dependent effect.

SMILES strings stand for the structures. Active and inactive are the calls of the source. The rule behind the calls is not given here.

In general, IC50 refers to the concentration that inhibits the measured activity by half. On to `C=C1C(=O)O[C@H]2CC3=C[C@H](C/C(C)=C/[C@@H](OC(=O)/C=C/c4cccs4)[C@H]12)OC3=O`, for which the Activity in [1] was found to be 32.6%; in data set [2], 0.53%; in data set [4] it was 10.6%; in data set [6], 27.3%; in data set [11], 23.9%; in data set [13], 14.8%. The Activity in data set [15] is 1.45%; in data set [16], “Dde”. In data set [3], the viability at 12 h, 25 µM was determined as 96.7%. Moreover, the outcome in [5], in [7] and in data set [8] was Active. The viability at 10 µM in data set [9] worked out at 38.2%. Also, the IC50 came to 4.3 µM in [10] and 2.9 µM in [14]. Further, in data set [12], the viability at 3 µM worked out at 83.2%.
